In experiment [1] the target is T1, Tyrosine-protein kinase ZAP-70 (Homo sapiens) (UniProt P43403).
T1 sequence (whole entry): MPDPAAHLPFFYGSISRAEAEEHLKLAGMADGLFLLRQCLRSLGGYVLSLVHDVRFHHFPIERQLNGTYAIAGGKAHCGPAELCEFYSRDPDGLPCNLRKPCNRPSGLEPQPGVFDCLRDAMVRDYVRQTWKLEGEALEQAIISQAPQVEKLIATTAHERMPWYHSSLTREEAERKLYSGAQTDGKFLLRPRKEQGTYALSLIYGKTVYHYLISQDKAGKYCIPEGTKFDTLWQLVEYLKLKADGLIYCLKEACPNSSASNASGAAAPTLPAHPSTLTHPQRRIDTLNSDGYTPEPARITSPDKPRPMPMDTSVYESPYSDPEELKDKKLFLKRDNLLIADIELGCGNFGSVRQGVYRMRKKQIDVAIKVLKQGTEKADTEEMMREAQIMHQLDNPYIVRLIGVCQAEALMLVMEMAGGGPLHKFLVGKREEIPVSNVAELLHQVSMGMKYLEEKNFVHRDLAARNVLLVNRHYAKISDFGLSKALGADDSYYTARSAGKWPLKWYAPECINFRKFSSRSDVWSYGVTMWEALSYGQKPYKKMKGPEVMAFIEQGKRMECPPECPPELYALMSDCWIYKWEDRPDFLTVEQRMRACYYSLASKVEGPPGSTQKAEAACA
Kind of experiment: Selectivity interaction (Millipore kinase profiler) EUB0000124b ZAP70. Particulars: at 10 µM.

The target of experiment [2] is Cyclin-dependent kinase 14 (Homo sapiens) (UniProt O94921). Nature of the experiment: Selectivity interaction (KinomeScan (DiscoverX)) EUB0001049a CDK14. Conditions: at 1 µM.
Cyclin-dependent kinase 14 (Homo sapiens), sequence (O94921 whole entry): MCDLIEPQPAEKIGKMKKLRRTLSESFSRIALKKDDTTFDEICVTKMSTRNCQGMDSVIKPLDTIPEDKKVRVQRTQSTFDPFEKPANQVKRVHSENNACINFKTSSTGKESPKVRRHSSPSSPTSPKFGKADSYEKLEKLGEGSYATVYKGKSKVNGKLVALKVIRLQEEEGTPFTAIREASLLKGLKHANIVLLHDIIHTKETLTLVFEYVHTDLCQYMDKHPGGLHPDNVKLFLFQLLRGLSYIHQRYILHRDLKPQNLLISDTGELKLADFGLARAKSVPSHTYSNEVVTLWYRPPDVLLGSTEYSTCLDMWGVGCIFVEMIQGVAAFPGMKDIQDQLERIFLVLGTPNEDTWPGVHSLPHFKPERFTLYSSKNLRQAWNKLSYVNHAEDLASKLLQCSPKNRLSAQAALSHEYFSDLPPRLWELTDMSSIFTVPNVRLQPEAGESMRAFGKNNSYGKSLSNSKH
Experiment [3] deals with Cyclin-dependent kinase 18 (Homo sapiens) (UniProt Q07002). Nature of the experiment: Selectivity interaction (KinomeScan (DiscoverX)) EUB0000607a CDK18. Conditions: at 10 µM.
Cyclin-dependent kinase 18 (Homo sapiens), sequence (Q07002 whole entry, canonical isoform): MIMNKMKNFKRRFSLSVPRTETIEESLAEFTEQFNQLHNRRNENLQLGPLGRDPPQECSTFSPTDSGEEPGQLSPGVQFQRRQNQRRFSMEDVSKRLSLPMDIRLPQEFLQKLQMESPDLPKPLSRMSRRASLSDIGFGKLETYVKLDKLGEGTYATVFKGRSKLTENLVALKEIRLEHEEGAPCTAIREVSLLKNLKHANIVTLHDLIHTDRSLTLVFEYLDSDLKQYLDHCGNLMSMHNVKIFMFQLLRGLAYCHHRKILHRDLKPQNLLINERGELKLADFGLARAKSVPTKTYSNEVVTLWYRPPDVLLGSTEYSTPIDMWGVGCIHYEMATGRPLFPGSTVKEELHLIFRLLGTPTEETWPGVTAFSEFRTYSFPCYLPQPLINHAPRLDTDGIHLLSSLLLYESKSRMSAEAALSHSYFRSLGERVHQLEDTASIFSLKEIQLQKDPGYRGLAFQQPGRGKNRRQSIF
The subject of experiment [4] is Phosphatidylinositol 4,5-bisphosphate 3-kinase catalytic subunit alpha isoform (Homo sapiens), P42336 [H1047Y]. Nature of the experiment: (§1) Selectivity interaction (KinomeScan (DiscoverX)) EUB0000229b PIK3CA. Particulars: at 1 µM.
The test system of experiment [5] is Phosphatidylinositol 4,5-bisphosphate 3-kinase catalytic subunit alpha isoform (Homo sapiens), P42336 [E542K]. The description is as §1. Particulars: at 1 µM.
Phosphatidylinositol 4,5-bisphosphate 3-kinase catalytic subunit alpha isoform (Homo sapiens), P42336 [E542K], sequence (P42336 whole entry E542K, canonical isoform): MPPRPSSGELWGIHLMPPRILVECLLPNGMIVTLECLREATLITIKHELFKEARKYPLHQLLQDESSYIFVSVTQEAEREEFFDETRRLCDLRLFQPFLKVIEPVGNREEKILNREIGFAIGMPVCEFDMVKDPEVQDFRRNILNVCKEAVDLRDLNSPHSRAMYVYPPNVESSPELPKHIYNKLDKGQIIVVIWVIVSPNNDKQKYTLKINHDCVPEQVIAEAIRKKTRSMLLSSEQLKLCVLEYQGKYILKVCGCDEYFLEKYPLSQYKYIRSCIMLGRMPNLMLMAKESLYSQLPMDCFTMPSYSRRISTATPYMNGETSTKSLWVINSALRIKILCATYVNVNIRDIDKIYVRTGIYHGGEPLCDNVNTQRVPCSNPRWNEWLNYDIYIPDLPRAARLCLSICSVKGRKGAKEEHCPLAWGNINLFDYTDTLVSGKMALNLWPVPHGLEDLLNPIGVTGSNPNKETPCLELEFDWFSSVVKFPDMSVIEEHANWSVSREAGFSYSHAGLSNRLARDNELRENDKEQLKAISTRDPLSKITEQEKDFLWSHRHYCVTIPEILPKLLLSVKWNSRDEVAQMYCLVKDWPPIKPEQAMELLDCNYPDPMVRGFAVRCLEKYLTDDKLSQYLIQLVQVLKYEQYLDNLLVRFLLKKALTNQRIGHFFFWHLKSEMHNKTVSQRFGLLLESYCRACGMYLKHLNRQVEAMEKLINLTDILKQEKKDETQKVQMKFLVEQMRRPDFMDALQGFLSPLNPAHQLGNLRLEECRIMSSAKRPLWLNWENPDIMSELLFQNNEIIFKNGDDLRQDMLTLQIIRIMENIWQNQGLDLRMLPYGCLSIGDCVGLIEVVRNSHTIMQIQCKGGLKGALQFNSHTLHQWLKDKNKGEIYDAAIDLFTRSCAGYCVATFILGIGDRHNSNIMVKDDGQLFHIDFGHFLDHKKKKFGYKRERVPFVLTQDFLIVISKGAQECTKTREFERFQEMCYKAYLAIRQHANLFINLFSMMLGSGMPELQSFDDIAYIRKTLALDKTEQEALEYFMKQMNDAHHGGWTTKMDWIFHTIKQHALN
For experiment [6], the system named is Phosphatidylinositol 4,5-bisphosphate 3-kinase catalytic subunit alpha isoform (Homo sapiens), P42336 [E545A]. The experiment is described as §1. Conditions: at 1 µM.
Phosphatidylinositol 4,5-bisphosphate 3-kinase catalytic subunit alpha isoform (Homo sapiens), P42336 [E545A], sequence (P42336 whole entry E545A, canonical isoform): as the sequence (P42336 whole entry E542K, canonical isoform) above, with K542E, E545A counted along it
In experiment [7] the test system is Phosphatidylinositol 4,5-bisphosphate 3-kinase catalytic subunit alpha isoform (Homo sapiens), P42336 [I800L]. The description is as §1. Conditions: at 1 µM.
Phosphatidylinositol 4,5-bisphosphate 3-kinase catalytic subunit alpha isoform (Homo sapiens), P42336 [I800L], sequence (P42336 whole entry I800L, canonical isoform): as the sequence (P42336 whole entry E542K, canonical isoform) above, with K542E, I800L counted along it
Experiment [8] has as its system Phosphatidylinositol 4,5-bisphosphate 3-kinase catalytic subunit alpha isoform (Homo sapiens), P42336 [E545K]. The experiment is described as §1. Particulars: at 1 µM.
The test system of experiment [9] is Phosphatidylinositol 4,5-bisphosphate 3-kinase catalytic subunit alpha isoform (Homo sapiens), P42336 [C420R]. Described as §1. Conditions: at 1 µM.
Phosphatidylinositol 4,5-bisphosphate 3-kinase catalytic subunit alpha isoform (Homo sapiens), P42336 [C420R], sequence (P42336 whole entry C420R, canonical isoform): as the sequence (P42336 whole entry E542K, canonical isoform) above, with C420R, K542E counted along it
Experiment [10] relates to Phosphatidylinositol 4,5-bisphosphate 3-kinase catalytic subunit alpha isoform (Homo sapiens), P42336 [H1047L]. Described as §1. Particulars: at 1 µM.
Phosphatidylinositol 4,5-bisphosphate 3-kinase catalytic subunit alpha isoform (Homo sapiens), P42336 [H1047L], sequence (P42336 whole entry H1047L, canonical isoform): as the sequence (P42336 whole entry E542K, canonical isoform) above, with K542E, H1047L counted along it
The subject of experiment [11] is Phosphatidylinositol 4,5-bisphosphate 3-kinase catalytic subunit alpha isoform (Homo sapiens), P42336 [Q546K]. The experiment is described as §1. Conditions: at 1 µM.
The subject of experiment [12] is Phosphatidylinositol 4,5-bisphosphate 3-kinase catalytic subunit alpha isoform (Homo sapiens), P42336 [M1043I]. The experiment is described as §1. Particulars: at 1 µM.
The target of experiment [13] is Phosphatidylinositol 4,5-bisphosphate 3-kinase catalytic subunit alpha isoform (Homo sapiens) (UniProt P42336). The description is as §1. Conditions: at 10 µM.
Phosphatidylinositol 4,5-bisphosphate 3-kinase catalytic subunit alpha isoform (Homo sapiens), sequence (P42336 whole entry, canonical isoform): as the sequence (P42336 whole entry E542K, canonical isoform) above, with K542E counted along it
The subject of experiment [14] is T2, Receptor-type tyrosine-protein kinase FLT3 (Homo sapiens), P36888 [K663Q].
T2 sequence (whole entry): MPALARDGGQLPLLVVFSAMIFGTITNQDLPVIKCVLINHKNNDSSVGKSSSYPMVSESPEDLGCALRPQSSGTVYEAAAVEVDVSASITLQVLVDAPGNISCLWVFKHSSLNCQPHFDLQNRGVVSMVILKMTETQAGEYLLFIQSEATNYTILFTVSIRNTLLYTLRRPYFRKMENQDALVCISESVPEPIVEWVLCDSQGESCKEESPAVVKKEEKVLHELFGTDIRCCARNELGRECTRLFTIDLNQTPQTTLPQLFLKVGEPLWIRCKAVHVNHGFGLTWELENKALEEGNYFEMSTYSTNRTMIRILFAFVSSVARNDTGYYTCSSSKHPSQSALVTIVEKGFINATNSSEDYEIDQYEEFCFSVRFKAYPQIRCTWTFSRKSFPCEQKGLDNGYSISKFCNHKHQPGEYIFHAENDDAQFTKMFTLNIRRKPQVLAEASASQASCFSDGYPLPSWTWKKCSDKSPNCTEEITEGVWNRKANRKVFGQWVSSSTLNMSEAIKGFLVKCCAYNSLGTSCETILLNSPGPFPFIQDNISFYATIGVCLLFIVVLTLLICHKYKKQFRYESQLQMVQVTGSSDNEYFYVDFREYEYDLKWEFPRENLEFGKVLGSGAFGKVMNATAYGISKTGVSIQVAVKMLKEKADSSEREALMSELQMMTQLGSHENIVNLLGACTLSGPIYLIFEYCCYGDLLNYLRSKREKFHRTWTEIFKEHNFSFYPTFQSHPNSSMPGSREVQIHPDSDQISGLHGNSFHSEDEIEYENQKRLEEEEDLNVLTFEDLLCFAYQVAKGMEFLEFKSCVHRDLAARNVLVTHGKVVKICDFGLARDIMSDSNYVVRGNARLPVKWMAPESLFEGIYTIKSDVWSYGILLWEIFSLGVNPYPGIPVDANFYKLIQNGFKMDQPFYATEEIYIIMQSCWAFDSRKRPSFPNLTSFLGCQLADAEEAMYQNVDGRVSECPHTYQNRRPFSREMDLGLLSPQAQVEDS
Kind of experiment: (§2) Selectivity interaction (KinomeScan (DiscoverX)) EUB0000618a FLT3. Conditions: at 10 µM.

In experiment [15] the test system is Receptor-type tyrosine-protein kinase FLT3 (Homo sapiens), P36888 [UNDEFINED MUTATION]. The description is as §2. Particulars: at 10 µM.

Phosphatidylinositol 4,5-bisphosphate 3-kinase catalytic subunit alpha isoform (Homo sapiens), P42336 [M1043I], sequence (P42336 whole entry M1043I, canonical isoform): as the sequence (P42336 whole entry E542K, canonical isoform) above, with K542E, M1043I counted along it
Phosphatidylinositol 4,5-bisphosphate 3-kinase catalytic subunit alpha isoform (Homo sapiens), P42336 [E545K], sequence (P42336 whole entry E545K, canonical isoform): as the sequence (P42336 whole entry E542K, canonical isoform) above, with K542E, E545K counted along it
Phosphatidylinositol 4,5-bisphosphate 3-kinase catalytic subunit alpha isoform (Homo sapiens), P42336 [H1047Y], sequence (P42336 whole entry H1047Y, canonical isoform): as the sequence (P42336 whole entry E542K, canonical isoform) above, with K542E, H1047Y counted along it
Phosphatidylinositol 4,5-bisphosphate 3-kinase catalytic subunit alpha isoform (Homo sapiens), P42336 [Q546K], sequence (P42336 whole entry Q546K, canonical isoform): as the sequence (P42336 whole entry E542K, canonical isoform) above, with K542E, Q546K counted along it

Consider `CC(=O)Nc1cccc(-n2c(=O)n(C3CC3)c(=O)c3c(Nc4ccc(I)cc4F)n(C)c(=O)c(C)c32)c1`, for which the % of control in experiment [1] was determined as 111%.

On to `COc1cc(Nc2nc(C)cc(-c3cnn4nc(OC)ccc34)n2)cc(C(F)(F)F)c1`, for which, in experiment [2], the % of control was 87%.

With `CNC(=O)Nc1ccc(-c2nc(N3CC4CCC(C3)O4)c3cnn(C4CCC5(CC4)OCCO5)c3n2)cc1`, in [3], the % of control was determined as 92%.

Consider `COc1cc(N(C)c2ccnc3ccc(C(F)(F)F)cc23)cc(OC)c1OC`, for which the % binding amounted to 90% in experiment [4]; 90% in [5]; 67% in [6]; 72% in [7]; 76% in [8]; 87% in experiment [9]. The % binding amounted to 63% in experiment [10], 81% in experiment [11], 87% in experiment [12] and 100% in experiment [13].

As to `O[C@H]1CC[C@H](Nc2ncc3nc(Nc4c(F)cc(F)cc4F)n([C@H]4CCOC4)c3n2)CC1`, the values for the % of control in experiment [14] and in experiment [15] were 100% and 90%, respectively.

The record behind these values is ChEMBL document CHEMBL5465560, “Selectivity Literature for EUbOPEN Chemogenomic Library” (2024).
